Molecules are shown by their SMILES. The source made the active and inactive calls. The calls are words filed in the database; no cut-off is given here.

The test system of test [1] is HCC1806. The test is described as follows: Inhibition of RSK in human HCC1806 cells assessed as reduction in YB-1 phosphorylation at Ser102 residue at 5 uM incubated for 12 hrs by western blot analysis. Format: cell-based. Background: A western blot detects proteins with antibodies after separation by electrophoresis.
Test [2] relates to HCC1806. The experiment in a line: Anti-tumor activity against human HCC1806 cells assessed as inhibition of cell proliferation. Format: functional, cell-based.

In the case of `Cc1ccc(-c2ccncc2-c2ccc(O)c(O)c2)c2ccccc12`, in test [1], the inhibition entry was “Active”. In addition, the outcome in test [2] was Active.

`Cc1cc(C)cc(-c2ccncc2-c2ccc(O)c(O)c2)c1`: in test [1], the inhibition entry is “Active”.

For `Clc1ccc(-c2ccncc2-c2ccc(OCc3ccccc3)c(NCc3ccccc3)c2)cc1`, the inhibition result in test [1] is “Active”.

On to `CN1CCN(c2ccc(-c3ccncc3-c3cc(F)c(O)c(F)c3)cc2)CC1`, for which the inhibition result in test [1] was “Active”. In addition, the outcome in test [2] was Active.

Take `O=Cc1ccc(-c2ccncc2-c2ccc(OCc3ccccc3)c(OCc3ccccc3)c2)cc1`: the inhibition entry in test [1] was “Active”.

These data come from ChEMBL document CHEMBL5143571, “Design, synthesis and anti-breast cancer evaluation of biaryl pyridine analogues as potent RSK inhibitors” (Bioorg Med Chem Lett, 2022).
